Reference: patent US12171229B2, “Heteroaryl-triazole and heteroaryl-tetrazole compounds as pesticides” (BAYER AKTIENGESELLSCHAFT, priority 2018, dated 2024)

Legend:
Type in all cases: in vivo
[1] = system: Ctenocephalides felis; experiment: Ctenocephalides felis in-vitro contact test, adult cat flea; conditions: 5 μg/cm^2 (=500 g/ha), after 48 hours, adult cat fleas, read-out: efficacy (fleas dead or moribund)
How it was run: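 Compound in acetone coated onto inner walls of glass tubes, e.g. 900 ppm giving 5 μg/cm². After drying, 5–10 adult C. felis added per tube and held at room temperature. At 48 h, fleas unable to escape a 45–50 °C heating plate within 5 min scored dead/moribund, giving % efficacy.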

[2] = system: Ctenocephalides felis; experiment: Ctenocephalides felis oral test; conditions: 48 h, 100 ppm in cattle blood, after 2 days, adult unfed cat fleas
How it was run: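 Compound dissolved in DMSO and diluted in cattle blood to test concentration, offered to ~20 unfed adult fleas via a parafilm-sealed blood chamber held at 37° C (fleas at room temperature). Kill recorded at 2 days as % mortality.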

[3] = system: Diabrotica balteata; experiment: Diabrotica balteata spray test; conditions: Diabrotica balteata, in Triticum aestivum, 168 h, after 7 days, larvae on wheat seeds, read-out: efficacy (seedlings grown up); for pest or weed control at 80 µg/disc, 250 g/ha: 80 μg/well (=250 g/ha); for pest or weed control at 160 µg/disc, 500 g/ha: 160 μg/well (=500 g/ha)
How it was run: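 Scoring at 7 days compares seedling growth with untreated, uninfested controls (100% = equal growth, 0% = none grown). Wheat seedlings germinated 1 day on agar, 5 per well, received a spray of test solution made in 1000 ppm emulsifier water. Each unit then received 10–20 beetle larvae.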

[4] = system: Myzus persicae; experiment: Myzus persicae oral test; conditions: 120 h, 4 ppm, after 5 days
How it was run: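 Aphid mortality (%) was recorded 5 days after a mixed Myzus persicae population began sucking, through parafilm, on compound solutions (acetone stock diluted with water) combined with sugar-supplemented IPL41 medium.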

[5] = system: Spodoptera frugiperda; experiment: Spodoptera frugiperda spray test; conditions: 168 h, after 7 days, larvae on maize leaf sections
How it was run: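 Percent larval kill read at day 7 on Zea mays leaf pieces that were spray-treated and, after drying, infested. Spray preparations made by dilution with emulsifier-containing water (1000 ppm).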

[6] = system: Aedes aegypti strain MONHEIM; experiment: Aedes aegypti test (AEDSAE surface treatment & contact assay); conditions: 24 hours after contact, read-out: efficacy (mortality); for mortality at 4 mg/m2: surface concentration 4 mg/m^2, exposure 30 minutes; for mortality at 20 mg/m2: surface concentration 20 mg/m^2, exposure 30 minutes
How it was run: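 Compound dissolved in acetone (2 mg/ml) with 2000 ppm rapeseed oil methyl ester, applied to glazed tile and dried; adult strain MONHEIM mosquitoes exposed 30 minutes. Percent mortality scored 24 hours after contact.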

[7] = system: Anopheles funestus strain FUMOZ-R; experiment: Anopheles funestus test (ANPHFU surface treatment & contact assay); conditions: 24 hours after contact, read-out: efficacy (mortality)
How it was run: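 Compound dissolved in acetone (2 mg/ml) with 2000 ppm rapeseed oil methyl ester and applied to a glazed tile. After acetone evaporation, adult FUMOZ-R mosquitoes were exposed to the dried surface for 30 min. Percent mortality was scored 24 h after contact.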

[8] = system: Musca domestica strain WHO-N; experiment: Musca domestica test (MUSCDO surface treatment & contact assay); conditions: 24 hours after contact, read-out: efficacy (mortality); for mortality at 4 mg/m2: surface concentration 4 mg/m^2, exposure 30 minutes; for mortality at 20 mg/m2: surface concentration 20 mg/m^2, exposure 30 minutes
How it was run: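 Adult WHO-N flies exposed for 30 minutes on a glazed tile coated with compound dissolved in acetone (2 mg/ml) with 2000 ppm rapeseed oil methyl ester, acetone evaporated. Percent mortality read 24 hours after contact.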

Compound	pest or weed control at 5 µg/cm2 [1]	mortality at 100 ppm [2]	pest or weed control at 80 µg/disc, 250 g/ha [3]	pest or weed control at 160 µg/disc, 500 g/ha [3]	mortality at 4 ppm [4]	mortality at 100 g/ha [5]	mortality at 500 g/ha [5]	mortality at 4 mg/m2 [6]	mortality at 20 mg/m2 [6]	mortality at 20 mg/m2 ([7]; surface concentration 20 mg/m^2, exposure 30 minutes)	mortality at 4 mg/m2 [8]	mortality at 20 mg/m2 [8]	mortality at 4 mg/m2 ([7]; surface concentration 4 mg/m^2, exposure 30 minutes)
Cc1nc([C@H](C)NC(=O)c2cc(Cl)cc(C(F)(F)F)c2)n(-c2ccc(C#N)cn2)n1 [Example I-049]	100%	100%	80%	100%	100%	100%	100%	90 to 100%	90 to 100%	90 to 100%	90 to 100%	90 to 100%	
C[C@H](NC(=O)c1cc(C(F)(F)F)cc(C(F)(F)F)c1)c1ncnn1-c1ccc(C#N)cn1 [Example I-052]	90%	100%	100%	100%	100%	100%	100%	90 to 100%	90 to 100%		90 to 100%	90 to 100%	85 to 100%
